Results: patent US20160362416A1, “ANTIVIRAL COMPOUNDS” (Gilead Sciences, Inc., priority 2012, published 2016)

Assays:
Type in all cases: cell-based
[1] = test system: NS5A chimeric genotype 2a JFH-1 replicon with genotype 2a J6 strain NS5A gene (M31); test: HCV genotype 2a J6 NS5A chimeric replicon assay, transient (t); conditions: Hepatitis C virus, 72 h, read-out: 2a J6 (t) (nM)
Protocol: (§1) Evaluation of cell-based anti-HCV activity: Antiviral potency (EC50) was determined using a Renilla luciferase (RLuc)-based HCV replicon reporter assay. To perform the assay for genotype 1 and 2a JFH-1, stable HCV 1a RLuc replicon cells (harboring a dicistronic genotype 1a H77 replicon that encodes a RLuc reporter), stable HCV lb RLuc replicon cells (harboring a dicistronic genotype 1b Conl replicon that encodes a RLuc reporter), or stable HCV 2a JFH-1 Rluc replicon cells (harboring a dicistronic genotype 2a JFH-1 replicon that encodes a RLuc reporter; with L31 present in NS5A) were dispensed into 384-well plates for EC50 assays. To perform the assay for genotype 2a (with M31 present in NS5A) or 2b, NS5A chimeric genotype 2a JFH-1 replicons that encodes a RLuc-Neo reporter and either genotype 2a J6 strain NS5A gene or genotype 2b MD2b-1 strain NS5A gene (both with M31 present) respectively, were either transiently transfected (t) into Huh-Lunet cells or were established as stably replicating replicon cells (s) is provided. Either cells were dispensed into 384-well plates for EC50 assays. To perform the assay for genotype 3 and 4, NS5A chimeric genotype 1b Conl replicons that encodes a Pi-RLuc reporter and either genotype 3a S52 strain NS5A gene or genotype 4a ED43 strain NS5A gene respectively, were transiently transfected (t) into Huh-Lunet cells, which were subsequently dispensed into 384-well plates. Compounds were dissolved in DMSO at a concentration of 10 mM and diluted in DMSO either manually or using an automated pipeting instrument. Serially 3-fold diluted compounds were either manually mixed with cell culture media and added to the seeded cells or directly added to the cells using an automated instrument. DMSO was used as a negative (solvent; no inhibition) control, and the protease inhibitor ITMN-191 was included at a concentration >100×EC50 as a positive control. 72 hours later, cells were lysed and Renilla luciferase activity quantified as recommended by the manufacturer (Promega-Madison, Wis.). Non-linear regression was performed to calculate EC50 values.

[2] = test system: stable HCV 1a RLuc replicon cells (genotype 1a H77 replicon); test: HCV genotype 1a RLuc replicon reporter assay; conditions: Hepatitis C virus; stable genotype 1a H77 RLuc replicon cells, 72 hours
Protocol: as §1

[3] = test system: stable HCV 1b RLuc replicon cells (genotype 1b Con1 replicon); test: HCV genotype 1b RLuc replicon reporter assay; conditions: Hepatitis C virus; stable genotype 1b Con1 RLuc replicon cells, 72 hours
Protocol: as §1

[4] = test system: NS5A chimeric genotype 2a JFH-1 replicon with genotype 2b MD2b-1 strain NS5A gene (M31); test: HCV genotype 2b NS5A chimeric replicon assay, stable (s); conditions: Hepatitis C virus, 72 h, read-out: 2b (s) (nM)
Protocol: as §1

[5] = test system: NS5A chimeric genotype 1b Con1 replicon with genotype 4a ED43 strain NS5A gene; test: HCV genotype 4a NS5A chimeric replicon assay; conditions: Hepatitis C virus, 72 h, read-out: 4a (s) (nM)
Protocol: as §1, with “[…],” for “were transiently transfected (t) into Huh-Lunet cells,”

[6] = test system: stable HCV 2a JFH-1 Rluc replicon cells (L31 present in NS5A); test: HCV genotype 2a JFH-1 RLuc replicon reporter assay; conditions: Hepatitis C virus, 72 h, read-out: 2a JFH (nM)
Protocol: as §1

[7] = test system: NS5A chimeric genotype 1b Con1 replicon with genotype 3a S52 strain NS5A gene; test: HCV genotype 3a NS5A chimeric replicon assay; conditions: Hepatitis C virus, 72 h, read-out: 3a (nM)
Protocol: as §1

| Compound | EC50 [1] | EC50 [2] | EC50 [3] | EC50 [4] | EC50 [5] | EC50 [6] | EC50 [7] |
| --- | --- | --- | --- | --- | --- | --- | --- |
| COC[C@H]1C[C@@H](c2ncc(-c3ccc4c(c3)COc3cc5c(ccc6nc([C@@H]7CC[C@H](C)N7C(=O)[C@@H](NC(=O)OC)C(C)C)[nH]c65)cc3-4)[nH]2)N(C(=O)[C@@H](NC(=O)OC)C2CCOCC2)C1 [Comp 2, reference compound] | 0.083 nM | 0.055 nM | 0.064 nM | – | – | – | – |
| COC(=O)N[C@H](C(=O)N1CCC[C@H]1c1ncc(-c2ccc3c(c2)COc2cc4c(ccc5nc([C@@H]6CCCN6C(=O)[C@@H](NC(=O)OC)C6CCOCC6)[nH]c54)cc2-3)[nH]1)C1CCOCC1 [Comp 11, reference compound] | – | 0.203 nM | 0.416 nM | 0.203 nM | – | – | – |
| COC(=O)N[C@H](C(=O)N1[C@@H](C)CC[C@H]1c1ncc(-c2ccc3c(c2)COc2cc4c(ccc5nc([C@@H]6CC[C@H](C)N6C(=O)[C@@H](NC(=O)OC)C6(C)CCOCC6)[nH]c54)cc2-3)[nH]1)C(C)C [Example AD, Methyl [(2S)-1-{(2S,5S)-2-[5-(2-{(2S,5S)-1-[(2S)-2-[(methoxycarbonyl)amino]-2-(4-methyltetrahydro-2H-pyran-4-yl)acetyl]-5-methylpyrrolidin-2-yl}-1,11-dihydroisochromeno[4′,3′:6,7]naphtho[1,2-d]imidazol-9-yl)-1H-imidazol-2-yl]-5-methylpyrrolidin-1-yl}-3-methyl-1-oxobutan-2-yl]carbamate] | 1.02 nM | 0.021 nM | 0.031 nM | 0.351 nM | 0.018 nM | 0.027 nM | 0.074 nM |
| CC[C@H]1CC[C@@H](c2nc3ccc4cc5c(cc4c3[nH]2)OCc2cc(-c3cnc([C@@H]4CC[C@H](C)N4C(=O)[C@@H](NC(=O)OC)C(C)C)[nH]3)ccc2-5)N1C(=O)[C@@H](NC(=O)OC)[C@@H]1CCCOC1 [Example AH, Methyl{(1S)-2-[(2S,5S)-2-ethyl-5-(9-{2-[(2S,5S)-1-{(2S)-2-[(methoxycarbonyl)amino]-3-methylbutanoyl}-5-methylpyrrolidin-2-yl]-1H-imidazol-5-yl}-1,11-dihydroisochromeno[4′,3′:6,7]naphtho[1,2-d]imidazol-2-yl)pyrrolidin-1-yl]-2-oxo-1-[(3S)-tetrahydro-2H-pyran-3-yl]ethyl}carbamate] | 0.172 nM | 0.026 nM | 0.021 nM | 0.104 nM | 0.017 nM | 0.031 nM | 0.154 nM |
| COC(=O)N[C@H](C(=O)N1[C@@H](C)CC[C@H]1c1nc2ccc3cc4c(cc3c2[nH]1)OCc1cc(-c2cnc([C@@H]3CC[C@H](C)N3C(=O)[C@@H](NC(=O)OC)C3(C)CCOCC3)[nH]2)ccc1-4)C(C)C [Example AL, Methyl [(2S)-1-{(2S,5S)-2-[9-(2-{(2S,5S)-1-[(2S)-2-[(methoxycarbonyl)amino]-2-(4-methyltetrahydro-2H-pyran-4-yl)acetyl]-5-methylpyrrolidin-2-yl}-1H-imidazol-5-yl)-1,11-dihydroisochromeno[4′,3′:6,7]naphtho[1,2-d]imidazol-2-yl]-5-methylpyrrolidin-1-yl}-3-methyl-1-oxobutan-2-yl]carbamate] | 0.776 nM | 0.02 nM | 0.03 nM | 0.713 nM | 0.028 nM | 0.026 nM | 0.086 nM |
| COC(=O)N[C@H](C(=O)N1[C@@H](C)CC[C@H]1c1ncc(-c2ccc3c(c2)COc2cc4c(ccc5nc([C@@H]6CC[C@H](C)N6C(=O)[C@H](NC(=O)OC)[C@H]6C[C@@H](C)O[C@@H](C)C6)[nH]c54)cc2-3)[nH]1)C(C)C [Example AN, Methyl {(2S)-1-[(2S,5S)-2-(5-{2-[(2S,5S)-1-{(2R)-2-[(2R,6S)-2,6-dimethyltetrahydro-2H-pyran-4-yl]-2-[(methoxycarbonyl)amino]acetyl}-5-methylpyrrolidin-2-yl]-1,11-dihydroisochromeno[4′,3′:6,7]naphtho[1,2-d]imidazol-9-yl}-1H-imidazol-2-yl)-5-methylpyrrolidin-1-yl]-3-methyl-1-oxobutan-2-yl}carbamate] | 4.44 nM | 4.44 nM | 0.049 nM | 4.44 nM | 0.935 nM | 0.852 nM | 4.44 nM |
| COC(=O)N[C@H](C(=O)N1[C@@H](c2ncc(-c3ccc4c(c3)COc3cc5c(ccc6nc([C@H]7C[C@@H](C)[C@@H](C)N7C(=O)[C@@H](NC(=O)OC)C7C[C@@H](C)O[C@H](C)C7)[nH]c65)cc3-4)[nH]2)C[C@@H](C)[C@H]1C)C1C[C@@H](C)O[C@H](C)C1 (stereo partly drawn) [Example BC, Methyl {(1S)-1-[(2R,6R)-2,6-dimethyltetrahydro-2H-pyran-4-yl]-2-[(2R,3R,5R)-5-(5-{2-[(2R,4R,5R)-1-{(2S)-2-[(2R,6R)-2,6-dimethyltetrahydro-2H-pyran-4-yl]-2-[(methoxycarbonyl)amino]acetyl}-4,5-dimethylpyrrolidin-2-yl]-1,11-dihydroisochromeno[4′,3′:6,7]naphtho[1,2-d]imidazol-9-yl}-1H-imidazol-2-yl)-2,3-dimethylpyrrolidin-1-yl]-2-oxoethyl}carbamate] | – | 10.1 nM | 2.47 nM | 23.1 nM | 6.24 nM | 8.04 nM | 23.3 nM |
| CCOC(=O)N[C@H](C(=O)N1[C@@H](C)CC[C@H]1c1ncc(-c2ccc3c(c2)COc2cc4c(ccc5nc([C@@H]6CC[C@H](C)N6C(=O)[C@@H](NC(=O)OCC)C6C[C@@H](C)O[C@H](C)C6)[nH]c54)cc2-3)[nH]1)C1C[C@@H](C)O[C@H](C)C1 (stereo partly drawn) [Example BM, Ethyl {(1S)-1-[(2R,6R)-2,6-dimethyltetrahydro-2H-pyran-4-yl]-2-[(2S,5S)-2-(5-{2-[(2S,5S)-1-{(2S)-2-[(2R,6R)-2,6-dimethyltetrahydro-2H-pyran-4-yl]-2-[(ethoxycarbonyl)amino]acetyl}-5-methylpyrrolidin-2-yl]-1,11-dihydroisochromeno[4′,3′:6,7]naphtho[1,2-d]imidazol-9-yl}-1H-imidazol-2-yl)-5-methylpyrrolidin-1-yl]-2-oxoethyl}carbamate] | – | 0.034 nM | 0.053 nM | – | 0.039 nM | 0.023 nM | 0.143 nM |
